Consider 1 substance from patent US20070021360A1, “Compositions, formulations and kit with anti-sense oligonucleotide and anti-inflammatory steroid and/or obiquinone for treatment of respiratory and lung disesase” (priority 2001, published 2007).

The subject of one data set is adenosine A2 receptors. Briefly: Adenosine A2 receptor binding ([3H]CGS-21680) in airway smooth muscle membranes of treated rabbits. Also on record: species or system rabbit. To be noted: airway smooth muscle membranes after cross-over experiment; mean (n = 8) ± SEM. The text has this: At the conclusion of the cross-over experiment of Example 3 above, airway smooth muscle from all rabbits was quantitatively analyzed for adenosine A1 receptor number. As a control for the specificity of the anti-sense oligonucleotide, adenosine A2 receptors, which should not have been affected, were also quantified. Airway smooth muscle tissue was dissected from each rabbit and a membrane fraction prepared according to the method of Kleinstein et al. (Kleinstein, J. and Glossrnann, H., Naunyn-Schrniedeberg's Arch Pharmacol. 305: 191-200 (1978)), the relevant portion of which is hereby incorporated in its entirety by reference, with slight modifications. Crude plasma membrane preparations were stored at −70 EC until the time of assay. Protein content was determined by the method of Bradford (M. Bradford, Anal. Biochem. 72, 240-254 (1976), the relevant portion of which is hereby incorporated in its entirety by reference). Frozen plasma membranes were thawed at room temperature and were incubated with 0.2 U/ml adenosine deaminase for 30 minutes at 37 EC to remove endogenous adenosine. The binding of [^3H] […] CGS-21680 ([…]) was measured as previously described by Ali et al. (Ali, S. et al., J. Pharmacol. Exp. Ther. 268, Ara. J. Physiol 266, L271-277 (1994), the relevant portion of which is hereby incorporated in its entirety by reference). […]

In the next data set the test system is adenosine A1 receptor. Briefly: Adenosine-induced bronchoconstriction (PC50 Adenosine) in allergic rabbits. Format: in vivo. The method, then:
A fortuitous hoology between the rabbit and human DNA sequences within the adenosine A1 gene overlapping the initiation codon permitted the use of the phosphorothioate anti-sense oligonucleotides initially designed for use against the human adenosine A1 receptor in a rabbit model. Neonatal New Zealand white Pasteurella-free rabbits were immunized intraperitoneally within 24 hours of birth with 312 antigen units/ml house dust mite (D. farinae) extract (Berkeley Biologicals, Berkeley, Calif.), mixed with 10% kaolin. Immunizations were repeated weekly for the first month and then biweekly for the next 2 months. At 3-4 months of age, eight sensitized rabbits were anesthetized and relaxed with a mixture of ketamine hydrochloride (44 mg/kg) and acepromazine maleate (0.4 mg/kg) administered intramuscularly. The rabbits were then laid supine in a comfortable position on a small molded, padded animal board and intubated with a 4.0-mm intratracheal tube (Mallinkrodt, Inc., Glens Falls, N.Y.). A polyethylene catheter of external diameter 2.4 mm with an attached latex balloon was passed into the esophagus and maintained at the same distance (approximately 16 cm) from the mouth throughout the experiments. The intratracheal tube was attached to a heated Fleisch pneumotachograph (size 00; DOM Medical, Richmond, Va.), and flow was measured using a Validyne differential pressure transducer (Model DP-45161927; Validyne Engineering Corp., Northridge, Calif.) driven by a Gould carrier amplifier (Model 11-4113; Gould Electronic, Cleveland, Ohio). The esophageal balloon was attached to one side of the differential pressure transducer, and the outflow of the intratracheal tube was connected to the opposite side of the pressure transducer to allow recording of transpulmonary pressure. Flow was integrated to give a continuous tidal volume, and measurements of total lung resistance (RL) and dynamic compliance (Cdyn) were calculated at isovolumetric and flow zero points, respectively, using an automated respiratory analyzer (Model 6; Buxco, Sharon, Conn.). Animals were randomized and on Day 1 pretreatment values for PC50 were obtained for aerosolized adenosine. Anti-sense (HAdA1AS) or mismatched control (HAdA1MM) oligonucleotides were dissolved in sterile physiological saline at a concentration of 5000 μg (5 mg) per 1.0 ml. […] Aerosols of either saline, adenosine, or anti-sense or mismatch oligonucleotides were generated by an ultrasonic nebulizer (DeVilbiss, Somerset, Pa.), producing aerosol droplets 80% of which were smaller than 5:m in diameter. In the first arm of the experiment, four randomly selected allergic rabbits were administered anti-sense oligonucleotide and four the mismatched control oligonucleotide. On the morning of the third day, PC50 values (the concentration of aerosolized adenosine in mg/ml required to reduce the dynamic compliance of the bronchial airway 50% from the baseline value) were obtained and compared to PC50 values obtained for these animals prior to exposure to oligonucleotide. Following a 1 week interval, animals were crossed over, with those previously administered mismatch control oligonucleotide now administered anti-sense oligonucleotide, and those previously treated with anti-sense oligonucleotide now administered mismatch control oligonucleotide. Treatment methods and measurements were identical to those employed in the first arm of the experiment. […] For the purpose of calculation, PC50 values for these animals were set at 20 mg/ml. The values given therefore represent a minimum figure for anti-sense effectiveness. Actual effectiveness was higher.
Aerosols of either adenosine (0-20 mglnml), or anti-sense or one of two mismatch oligonucleotides (5 mg/ml) were separately prepared with an ultrasonic nebulizer (Model 646, DeVilbiss, Somerset, Pa.), which produced aerosol droplets, 80% of which were smaller than 5:m in diameter. […]

Regarding “5′-GTAGCAGGCGGGGATGGGGGC-3′ [HAdA1MM1, reference compound]”, the “A2-Specific Binding” value in the data set on adenosine A2 receptors was 302 ± 22. Also, in the data set on adenosine A1 receptor (allergic rabbits, cross-over experiment, 20 mg total aerosolized oligo), the “effect on PC50 Adenosine value” was “No effect”. Further, the “PC50 Post Oligonucleotide” value in the data set on adenosine A1 receptor (asthmatic rabbits, approx. 5 mg aerosolized oligo twice daily for two days, third day, non-responders set at 20 mg/ml, mean (n = 8) ± SEM) came out at 5.16 ± 1.03 mg/mL. The “PC50 Pre Oligonucleotide” value in the data set on adenosine A1 receptor (asthmatic rabbits, baseline before oligonucleotide, aerosolized adenosine reducing dynamic compliance 50%, mean (n = 8) ± SEM) worked out at 3.56 ± 1.02 mg/mL. The toxicity entry in the data set with adenosine A1 receptor (rabbits receiving inhaled oligonucleotide) was “No toxicity was observed”.
